Results published in publication PMC6017585, “Molecular Basis for Converting (2S)-Methylsuccinyl-CoA Dehydrogenase into an Oxidase” (Molecules : A Journal of Synthetic Chemistry and Natural …, 2017).

Columns and labels:
[1] = molecular target: T1, (2S)-methylsuccinyl-CoA dehydrogenase (Mcd) (Cereibacter sphaeroides, UniProt D3JV03, W315F/T317G/E377N); conditions: FAD-reconstituted enzyme, 12 µM (2S)-methylsuccinyl-CoA, pH 7.5
[2] = molecular target: T2, ETF (electron transfer flavoprotein) (Cereibacter sphaeroides, UniProt Q9AQC3+Q9AQC4); experiment: absorbance of ETF-bound FAD at […] nm; type: binding; conditions: 55 µM ETF reduced by 0.1 µM Mcd, pH 7.8, 30 °C
T2 construct: gene etfA; plasmid pTE392 (pCDFDuet-1), alpha subunit N-terminal His6-tag, E. coli BL21 (DE3), heterodimer

[3] = molecular target: T3, (2S)-methylsuccinyl-CoA dehydrogenase (Mcd) (Cereibacter sphaeroides, UniProt D3JV03); conditions: holoenzyme, pH 7.7, 25 °C
[4] = molecular target: T1, (2S)-methylsuccinyl-CoA dehydrogenase (Mcd); conditions: dioxygen as electron acceptor, substrate made in situ from ethylmalonyl-CoA, pH 7.8, 30 °C
[5] = molecular target: (2S)-methylsuccinyl-CoA dehydrogenase (Mcd) (Cereibacter sphaeroides, UniProt D3JV03, T317G); conditions: dioxygen as electron acceptor, substrate made in situ from ethylmalonyl-CoA, pH 7.8, 30 °C
[6] = molecular target: T3, (2S)-methylsuccinyl-CoA dehydrogenase (Mcd); conditions: ETF as electron acceptor (55 µM), pH 7.8, 30 °C

T1 sequence (D3JV03 whole entry W315F/T317G/E377N): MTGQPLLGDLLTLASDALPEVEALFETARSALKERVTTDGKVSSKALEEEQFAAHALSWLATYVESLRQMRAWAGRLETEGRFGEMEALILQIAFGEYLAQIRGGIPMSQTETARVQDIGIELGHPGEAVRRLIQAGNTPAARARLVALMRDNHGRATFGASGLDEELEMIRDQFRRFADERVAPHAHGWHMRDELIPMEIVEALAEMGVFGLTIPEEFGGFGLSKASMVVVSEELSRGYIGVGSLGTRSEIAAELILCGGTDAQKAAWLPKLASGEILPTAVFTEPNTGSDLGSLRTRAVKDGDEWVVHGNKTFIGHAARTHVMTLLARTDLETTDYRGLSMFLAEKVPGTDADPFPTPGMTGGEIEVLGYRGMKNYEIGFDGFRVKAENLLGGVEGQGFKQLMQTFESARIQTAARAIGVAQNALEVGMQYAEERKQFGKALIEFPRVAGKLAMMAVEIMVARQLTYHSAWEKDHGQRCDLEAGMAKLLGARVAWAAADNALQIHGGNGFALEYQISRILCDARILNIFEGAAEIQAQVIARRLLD
T3 sequence (D3JV03 whole entry): as the sequence (D3JV03 whole entry W315F/T317G/E377N) above, with F315W, G317T, N377E counted along it
(2S)-methylsuccinyl-CoA dehydrogenase (Mcd) (Cereibacter sphaeroides, UniProt D3JV03, T317G), sequence (D3JV03 whole entry T317G): as the sequence (D3JV03 whole entry W315F/T317G/E377N) above, with F315W, N377E counted along it
T2 sequence (Q9AQC4 entry or part of it): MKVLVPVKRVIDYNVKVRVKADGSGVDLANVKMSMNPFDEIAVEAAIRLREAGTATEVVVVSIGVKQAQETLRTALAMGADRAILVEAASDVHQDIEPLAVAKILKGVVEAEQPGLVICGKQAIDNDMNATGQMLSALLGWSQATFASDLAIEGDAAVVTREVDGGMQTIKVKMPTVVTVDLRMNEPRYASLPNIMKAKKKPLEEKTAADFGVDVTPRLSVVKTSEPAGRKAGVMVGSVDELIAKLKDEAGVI
T2 sequence (Q9AQC3 entry or part of it): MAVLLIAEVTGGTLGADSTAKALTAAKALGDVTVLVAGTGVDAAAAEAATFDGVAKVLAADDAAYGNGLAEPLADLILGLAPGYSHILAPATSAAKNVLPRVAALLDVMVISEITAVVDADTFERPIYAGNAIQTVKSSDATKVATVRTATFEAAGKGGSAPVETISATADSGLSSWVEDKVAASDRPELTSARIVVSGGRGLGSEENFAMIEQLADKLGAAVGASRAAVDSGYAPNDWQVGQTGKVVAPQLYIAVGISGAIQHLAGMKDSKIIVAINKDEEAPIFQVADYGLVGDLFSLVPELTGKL

SMILES | 50 kDa ultrafiltration of FAD; flow-through spectrum [1] | absorbance of ETF-bound FAD at 440 nm [2] | co-purification; visible absorbance of bound flavin at 440 nm [3] | LC mesaconyl-CoA formation; FAD absorbance at 440 nm [4] | LC mesaconyl-CoA formation; FAD absorbance at 440 nm [5] | LC-MS mesaconyl-CoA formation; FAD / ETF absorbance at 440 nm [6]
Cc1cc2nc3c(=O)[nH]c(=O)nc-3n(C[C@H](O)[C@H](O)[C@H](O)COP(=O)(O)OP(=O)(O)OC[C@H]3O[C@@H](n4cnc5c(N)ncnc54)[C@H](O)[C@@H]3O)c2cc1C [FAD] | FAD does not dissociate from the enzyme during catalysis | allowed for the direct observation of ETF-bound FAD | Concentration of Mcd, which eluted with bound FAD cofactor | – | – | –
C[C@@H](CC(=O)O)C(=O)SCCNC(=O)CCNC(=O)[C@H](O)C(C)(C)COP(=O)(O)OP(=O)(O)OC[C@H]1O[C@@H](n2cnc3c(N)ncnc32)[C@H](O)[C@@H]1OP(=O)(O)O (mixture of isomers) [(2S)-methylsuccinyl-CoA] | – | – | – | The re-oxidation of the two enzymes was accompanied by product (mesaconyl-CoA) formation | The re-oxidation of the two enzymes was accompanied by product (mesaconyl-CoA) formation | Mcd showed a fast electron transfer from the CTC to ETF
